Type in all cases: functional
Test [1] concerns the target STE20-like serine/threonine-protein kinase (Homo sapiens, UniProt Q9H2G2).
Test [2] deals with Mitogen-activated protein kinase kinase kinase kinase 4 (Homo sapiens, UniProt O95819).
Test [3] deals with Cyclin-dependent kinase 19 (Homo sapiens, UniProt Q9BWU1). Description: Navigating the Kinome. Panel member name: CDC2L6.
For test [4], the target named is Serine/threonine-protein kinase TAO1 (Homo sapiens, UniProt Q7L7X3).
For test [5], the target named is Lymphokine-activated killer T-cell-originated protein kinase (Homo sapiens, UniProt Q96KB5).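 Note: value comes from a kinase panel screen in which TOPK was one of the panel members.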
In test [6] the target is Phosphorylase b kinase gamma catalytic chain, liver/testis isoform (Homo sapiens, UniProt P15735).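 Note: PHKG2 measured as one member of a kinome-wide kinase panel.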
For test [7], the target named is Serine/threonine-protein kinase D3 (Homo sapiens, UniProt O94806).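 Note: determined within a kinase panel screen, with PRKCN as the panel member.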
For test [8], the target named is Serine/threonine-protein kinase DCLK1 (Homo sapiens, UniProt O15075).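 Note: affinity for DCLK1 (listed as DCAMKL1) measured as one member of a kinome-wide kinase profiling panel.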
In test [9] the target is Serine/threonine-protein kinase pim-2 (Homo sapiens, UniProt Q9P1W9).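 Note: value comes from a broad kinase panel profiling study in which PIM2 was one of the panel members.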
For test [10], the target named is T1, Interleukin-1 receptor-associated kinase 4 (Homo sapiens, UniProt Q9NWZ3).
T1 sequence (Q9NWZ3 whole entry): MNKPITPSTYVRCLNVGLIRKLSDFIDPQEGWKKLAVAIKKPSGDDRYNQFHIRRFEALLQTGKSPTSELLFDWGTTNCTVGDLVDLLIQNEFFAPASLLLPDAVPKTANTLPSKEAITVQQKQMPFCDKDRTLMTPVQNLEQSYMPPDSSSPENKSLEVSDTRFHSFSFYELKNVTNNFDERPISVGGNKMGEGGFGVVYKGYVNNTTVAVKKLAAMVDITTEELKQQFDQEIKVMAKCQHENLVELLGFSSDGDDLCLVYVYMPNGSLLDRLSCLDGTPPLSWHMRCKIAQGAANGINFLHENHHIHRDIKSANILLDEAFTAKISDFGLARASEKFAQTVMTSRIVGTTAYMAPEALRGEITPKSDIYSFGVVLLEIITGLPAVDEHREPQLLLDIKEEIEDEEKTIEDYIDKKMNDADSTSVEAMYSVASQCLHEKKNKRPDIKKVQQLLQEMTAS

Test [11] deals with Dual specificity protein kinase CLK4 (Homo sapiens, UniProt Q9HAZ1).
In test [12] the target is Cyclin-dependent kinase 8 (Homo sapiens, UniProt P49336). The experiment in a line: Navigating the Kinome. Panel member name: CDK8.
Test [13] has as its target Dual specificity tyrosine-phosphorylation-regulated kinase 1A (Homo sapiens, UniProt Q13627).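 Note: measured against DYRK1A as one member of a broad kinome profiling panel.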
Test [14] deals with Proto-oncogene tyrosine-protein kinase receptor Ret (Homo sapiens, UniProt P07949).
Test [15] has as its target Leucine-rich repeat serine/threonine-protein kinase 2 (Homo sapiens, UniProt Q5S007).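 Note: value from a broad kinome-wide panel profiling study in which LRRK2 was one of the kinases tested.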
Test [16] addresses Leukocyte tyrosine kinase receptor (Homo sapiens, UniProt P29376). Description: Navigating the Kinome. Panel member name: LTK.
In test [17] the target is Tyrosine-protein kinase receptor TYRO3 (Homo sapiens, UniProt Q06418).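 Note: TYRO3 value obtained as one member of a kinome-wide profiling panel.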
For test [18], the target named is Macrophage-stimulating protein receptor (Homo sapiens, UniProt Q04912). Description: Navigating the Kinome. Panel member name: MST1R.
Test [19] deals with Hepatocyte growth factor receptor (Homo sapiens, UniProt P08581).
Test [20] addresses ALK tyrosine kinase receptor (Homo sapiens, UniProt Q9UM73).
Test [21] addresses Dual specificity tyrosine-phosphorylation-regulated kinase 1B (Homo sapiens, UniProt Q9Y463). The experiment in a line: Navigating the Kinome. Panel member name: DYRK1B.
Test [22] concerns the target Tyrosine-protein kinase SYK (Homo sapiens, UniProt P43405).
Test [23] has as its target Tyrosine-protein kinase Fer (Homo sapiens, UniProt P16591).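 Note: FER tested as one member of a kinome panel.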
Test [24] addresses Tyrosine-protein kinase Srms (Homo sapiens, UniProt Q9H3Y6).
Test [25] deals with Tyrosine-protein kinase JAK2 (Homo sapiens, UniProt O60674).
For test [26], the target named is Mitogen-activated protein kinase 1 (Homo sapiens, UniProt P28482).
Test [27] addresses Mitogen-activated protein kinase 9 (Homo sapiens, UniProt P45984).
Test [28] deals with Interleukin-1 receptor-associated kinase 1 (Homo sapiens, UniProt P51617).
The target in test [29] is T2, Tyrosine-protein kinase JAK3 (Homo sapiens, UniProt P52333).
T2 sequence (P52333 whole entry): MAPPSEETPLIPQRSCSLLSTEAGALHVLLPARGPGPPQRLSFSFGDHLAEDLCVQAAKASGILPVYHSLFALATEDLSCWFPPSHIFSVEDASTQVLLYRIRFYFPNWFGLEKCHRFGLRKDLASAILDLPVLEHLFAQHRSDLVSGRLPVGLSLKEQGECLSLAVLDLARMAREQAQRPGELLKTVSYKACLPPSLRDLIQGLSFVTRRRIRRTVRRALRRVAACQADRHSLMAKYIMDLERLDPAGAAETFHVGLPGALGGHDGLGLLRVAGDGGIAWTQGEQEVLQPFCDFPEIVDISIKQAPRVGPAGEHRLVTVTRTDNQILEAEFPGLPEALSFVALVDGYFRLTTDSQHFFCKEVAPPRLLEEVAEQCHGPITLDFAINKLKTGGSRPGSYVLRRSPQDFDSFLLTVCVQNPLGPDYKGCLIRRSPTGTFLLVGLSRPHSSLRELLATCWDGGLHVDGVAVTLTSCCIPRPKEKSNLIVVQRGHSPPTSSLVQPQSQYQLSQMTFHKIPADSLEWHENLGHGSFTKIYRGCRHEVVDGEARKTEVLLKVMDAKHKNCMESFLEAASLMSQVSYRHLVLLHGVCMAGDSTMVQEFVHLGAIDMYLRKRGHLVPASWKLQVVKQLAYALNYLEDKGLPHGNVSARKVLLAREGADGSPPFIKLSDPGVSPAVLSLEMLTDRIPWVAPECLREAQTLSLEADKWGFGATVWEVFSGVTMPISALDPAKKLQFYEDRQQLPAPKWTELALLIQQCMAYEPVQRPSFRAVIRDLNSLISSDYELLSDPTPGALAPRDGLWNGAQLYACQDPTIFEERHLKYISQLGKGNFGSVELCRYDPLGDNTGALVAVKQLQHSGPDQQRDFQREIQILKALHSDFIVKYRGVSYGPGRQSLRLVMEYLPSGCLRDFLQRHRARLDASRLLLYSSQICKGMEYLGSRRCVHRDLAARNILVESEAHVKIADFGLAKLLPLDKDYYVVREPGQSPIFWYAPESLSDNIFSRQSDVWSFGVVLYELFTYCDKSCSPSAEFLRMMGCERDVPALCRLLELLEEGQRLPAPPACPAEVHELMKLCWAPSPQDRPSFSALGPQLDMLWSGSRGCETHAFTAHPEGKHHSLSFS

For test [30], the target named is Testis-specific serine/threonine-protein kinase 2 (Homo sapiens, UniProt Q96PF2).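 Note: part of the Navigating the Kinome panel, target entry STK22B.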
Test [31] concerns the target Calcium/calmodulin-dependent protein kinase type II subunit delta (Homo sapiens, UniProt Q13557).
Test [32] deals with Mitogen-activated protein kinase 13 (Homo sapiens, UniProt O15264).
The target in another test is Aurora kinase B (Homo sapiens, UniProt Q96GD4).
The target of test [33] is Receptor tyrosine-protein kinase erbB-2 (Homo sapiens, UniProt P04626). The experiment in a line: Navigating the Kinome. Panel member name: ERBB2.
Test [34] deals with MAP kinase-activated protein kinase 5 (Homo sapiens, UniProt Q8IW41).
For test [35], the target named is T3, Tyrosine-protein kinase ITK/TSK (Homo sapiens, UniProt Q08881).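 Note: affinity for ITK measured as one member of a broad kinase panel profiling binding across the kinome.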
T3 sequence (Q08881 whole entry): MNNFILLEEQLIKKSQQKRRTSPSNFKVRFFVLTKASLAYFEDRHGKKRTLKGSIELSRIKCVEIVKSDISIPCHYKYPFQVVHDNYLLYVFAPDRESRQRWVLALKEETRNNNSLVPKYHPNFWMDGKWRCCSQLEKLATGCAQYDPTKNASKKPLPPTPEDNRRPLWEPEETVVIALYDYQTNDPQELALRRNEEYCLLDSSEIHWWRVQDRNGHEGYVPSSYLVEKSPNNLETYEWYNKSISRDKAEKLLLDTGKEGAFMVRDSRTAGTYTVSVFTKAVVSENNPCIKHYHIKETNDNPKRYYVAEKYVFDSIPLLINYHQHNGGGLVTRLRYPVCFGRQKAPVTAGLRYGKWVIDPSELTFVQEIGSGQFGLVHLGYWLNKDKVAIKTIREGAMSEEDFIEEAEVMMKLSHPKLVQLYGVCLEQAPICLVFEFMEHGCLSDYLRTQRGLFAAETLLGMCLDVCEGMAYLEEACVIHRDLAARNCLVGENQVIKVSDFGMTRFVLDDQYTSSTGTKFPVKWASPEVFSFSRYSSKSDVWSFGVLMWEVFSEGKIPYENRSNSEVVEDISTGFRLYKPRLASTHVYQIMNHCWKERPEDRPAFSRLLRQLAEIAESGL

In test [36] the target is Tyrosine-protein kinase Lck (Homo sapiens, UniProt P06239).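 Note: lck was assayed as one member of a kinase panel.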
In test [37] the target is Tyrosine-protein kinase Lyn (Homo sapiens, UniProt P07948).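 Note: lyn as one member of a kinase panel.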
For test [38], the target named is Testis-specific serine/threonine-protein kinase 1 (Homo sapiens, UniProt Q9BXA7).

Each structure is given as a SMILES string. Active and inactive are the calls of the source.

Sequence of Dual specificity protein kinase CLK4 (Q9HAZ1 whole entry): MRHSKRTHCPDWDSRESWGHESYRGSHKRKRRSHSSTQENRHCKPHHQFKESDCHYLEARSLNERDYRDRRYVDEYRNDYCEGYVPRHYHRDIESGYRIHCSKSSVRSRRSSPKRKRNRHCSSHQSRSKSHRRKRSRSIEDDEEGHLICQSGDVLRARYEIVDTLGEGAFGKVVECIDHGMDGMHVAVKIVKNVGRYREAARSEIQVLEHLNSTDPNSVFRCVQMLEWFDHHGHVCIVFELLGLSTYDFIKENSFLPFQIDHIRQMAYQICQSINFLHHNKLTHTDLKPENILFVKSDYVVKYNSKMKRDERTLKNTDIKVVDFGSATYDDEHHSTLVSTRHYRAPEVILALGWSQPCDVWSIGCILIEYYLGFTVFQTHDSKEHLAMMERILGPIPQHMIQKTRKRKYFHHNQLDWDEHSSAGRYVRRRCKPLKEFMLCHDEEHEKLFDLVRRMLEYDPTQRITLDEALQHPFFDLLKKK
Sequence of Serine/threonine-protein kinase pim-2 (Q9P1W9 whole entry): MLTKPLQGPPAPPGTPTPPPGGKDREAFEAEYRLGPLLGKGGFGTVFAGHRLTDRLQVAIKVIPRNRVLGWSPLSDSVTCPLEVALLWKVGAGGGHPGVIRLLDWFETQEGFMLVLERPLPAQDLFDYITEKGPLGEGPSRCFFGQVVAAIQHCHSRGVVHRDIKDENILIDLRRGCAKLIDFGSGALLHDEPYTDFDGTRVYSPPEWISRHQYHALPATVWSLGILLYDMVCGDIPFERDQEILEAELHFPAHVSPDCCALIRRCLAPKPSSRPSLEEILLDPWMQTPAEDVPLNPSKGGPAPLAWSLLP
Sequence of Lymphokine-activated killer T-cell-originated protein kinase (Q96KB5 whole entry, canonical isoform): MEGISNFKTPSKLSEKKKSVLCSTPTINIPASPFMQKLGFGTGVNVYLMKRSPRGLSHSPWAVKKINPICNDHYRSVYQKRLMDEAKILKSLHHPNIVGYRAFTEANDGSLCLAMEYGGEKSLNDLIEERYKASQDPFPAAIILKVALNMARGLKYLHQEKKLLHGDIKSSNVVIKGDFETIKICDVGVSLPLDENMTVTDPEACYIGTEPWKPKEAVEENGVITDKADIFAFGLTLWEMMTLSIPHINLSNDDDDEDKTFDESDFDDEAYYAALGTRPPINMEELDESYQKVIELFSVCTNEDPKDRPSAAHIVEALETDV
Sequence of Cyclin-dependent kinase 8 (P49336 whole entry): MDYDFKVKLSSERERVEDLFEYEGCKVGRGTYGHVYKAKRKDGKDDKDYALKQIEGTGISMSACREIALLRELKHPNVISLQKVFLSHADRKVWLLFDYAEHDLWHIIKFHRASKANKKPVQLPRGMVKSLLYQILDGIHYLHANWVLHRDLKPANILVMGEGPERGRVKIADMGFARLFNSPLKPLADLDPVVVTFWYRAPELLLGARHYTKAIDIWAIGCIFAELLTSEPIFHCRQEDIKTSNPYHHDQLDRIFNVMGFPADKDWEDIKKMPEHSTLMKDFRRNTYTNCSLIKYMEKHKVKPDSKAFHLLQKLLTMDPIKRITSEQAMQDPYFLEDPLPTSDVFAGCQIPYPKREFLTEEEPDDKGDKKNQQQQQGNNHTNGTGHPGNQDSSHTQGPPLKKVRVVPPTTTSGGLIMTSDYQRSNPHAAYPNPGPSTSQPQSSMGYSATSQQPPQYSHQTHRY
Sequence of Macrophage-stimulating protein receptor (Q04912 25-304 limits assumed): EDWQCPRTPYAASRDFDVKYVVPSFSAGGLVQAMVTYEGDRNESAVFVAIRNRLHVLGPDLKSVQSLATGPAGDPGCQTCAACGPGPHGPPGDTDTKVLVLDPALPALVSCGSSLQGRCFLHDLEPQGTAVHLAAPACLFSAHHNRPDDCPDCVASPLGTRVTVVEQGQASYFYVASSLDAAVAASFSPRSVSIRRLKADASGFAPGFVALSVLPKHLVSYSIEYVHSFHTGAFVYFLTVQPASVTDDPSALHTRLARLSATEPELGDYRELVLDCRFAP
Sequence of Macrophage-stimulating protein receptor (Q04912 310-1400 limits assumed): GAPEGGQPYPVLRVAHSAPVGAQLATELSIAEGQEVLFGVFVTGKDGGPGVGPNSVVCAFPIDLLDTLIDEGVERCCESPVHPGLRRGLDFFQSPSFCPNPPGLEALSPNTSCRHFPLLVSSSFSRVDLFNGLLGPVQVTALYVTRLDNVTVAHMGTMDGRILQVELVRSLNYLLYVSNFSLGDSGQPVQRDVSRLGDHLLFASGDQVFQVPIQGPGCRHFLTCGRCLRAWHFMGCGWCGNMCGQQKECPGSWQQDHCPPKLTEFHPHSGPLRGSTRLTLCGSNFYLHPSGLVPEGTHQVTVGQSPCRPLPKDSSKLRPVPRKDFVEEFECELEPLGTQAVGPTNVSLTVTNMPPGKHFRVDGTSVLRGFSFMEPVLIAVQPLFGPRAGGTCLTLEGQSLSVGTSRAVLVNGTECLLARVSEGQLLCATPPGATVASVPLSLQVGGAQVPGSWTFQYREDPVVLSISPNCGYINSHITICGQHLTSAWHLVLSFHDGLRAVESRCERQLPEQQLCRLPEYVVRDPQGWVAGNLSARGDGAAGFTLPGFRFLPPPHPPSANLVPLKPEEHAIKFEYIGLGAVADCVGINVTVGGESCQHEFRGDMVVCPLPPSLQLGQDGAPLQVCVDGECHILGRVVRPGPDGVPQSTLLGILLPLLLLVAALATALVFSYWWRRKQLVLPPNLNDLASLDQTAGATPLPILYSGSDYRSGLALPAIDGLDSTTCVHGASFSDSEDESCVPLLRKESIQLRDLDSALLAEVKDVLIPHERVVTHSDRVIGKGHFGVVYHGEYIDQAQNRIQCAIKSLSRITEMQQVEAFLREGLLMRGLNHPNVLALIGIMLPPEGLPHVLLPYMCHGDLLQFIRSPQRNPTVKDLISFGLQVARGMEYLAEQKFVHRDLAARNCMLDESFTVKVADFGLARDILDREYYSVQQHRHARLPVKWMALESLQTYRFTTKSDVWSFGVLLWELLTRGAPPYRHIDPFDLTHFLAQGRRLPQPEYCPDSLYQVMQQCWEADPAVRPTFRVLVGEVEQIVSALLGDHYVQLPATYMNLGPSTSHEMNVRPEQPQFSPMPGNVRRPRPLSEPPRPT
Sequence of Serine/threonine-protein kinase DCLK1 (O15075 whole entry): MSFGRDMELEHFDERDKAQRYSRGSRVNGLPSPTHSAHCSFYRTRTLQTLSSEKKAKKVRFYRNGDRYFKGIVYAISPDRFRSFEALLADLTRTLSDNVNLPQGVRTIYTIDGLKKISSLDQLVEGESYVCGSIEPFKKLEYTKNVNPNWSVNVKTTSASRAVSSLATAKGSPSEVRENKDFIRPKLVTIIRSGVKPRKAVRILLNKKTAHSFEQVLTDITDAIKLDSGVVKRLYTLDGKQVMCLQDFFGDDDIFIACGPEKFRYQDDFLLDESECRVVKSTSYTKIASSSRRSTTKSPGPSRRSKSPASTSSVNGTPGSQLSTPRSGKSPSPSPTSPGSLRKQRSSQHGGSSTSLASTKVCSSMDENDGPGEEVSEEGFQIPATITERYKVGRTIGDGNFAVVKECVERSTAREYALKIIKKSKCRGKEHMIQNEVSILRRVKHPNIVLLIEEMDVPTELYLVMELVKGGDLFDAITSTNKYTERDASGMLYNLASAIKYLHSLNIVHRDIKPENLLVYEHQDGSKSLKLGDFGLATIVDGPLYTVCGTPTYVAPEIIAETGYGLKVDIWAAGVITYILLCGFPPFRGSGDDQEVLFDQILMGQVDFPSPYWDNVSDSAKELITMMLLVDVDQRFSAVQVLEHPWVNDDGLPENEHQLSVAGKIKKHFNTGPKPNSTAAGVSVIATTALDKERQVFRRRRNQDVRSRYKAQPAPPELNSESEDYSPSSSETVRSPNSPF
Sequence of Mitogen-activated protein kinase 13 (O15264 whole entry): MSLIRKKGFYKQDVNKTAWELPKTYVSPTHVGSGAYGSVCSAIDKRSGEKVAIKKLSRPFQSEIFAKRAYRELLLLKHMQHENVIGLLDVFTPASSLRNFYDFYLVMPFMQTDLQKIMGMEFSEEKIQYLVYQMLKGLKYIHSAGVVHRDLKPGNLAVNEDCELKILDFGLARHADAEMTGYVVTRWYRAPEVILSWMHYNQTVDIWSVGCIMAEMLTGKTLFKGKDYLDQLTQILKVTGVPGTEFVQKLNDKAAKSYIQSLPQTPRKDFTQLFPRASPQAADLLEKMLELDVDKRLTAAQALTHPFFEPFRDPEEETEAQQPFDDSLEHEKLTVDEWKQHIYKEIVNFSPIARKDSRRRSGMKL
Sequence of Tyrosine-protein kinase Lyn (P07948 whole entry): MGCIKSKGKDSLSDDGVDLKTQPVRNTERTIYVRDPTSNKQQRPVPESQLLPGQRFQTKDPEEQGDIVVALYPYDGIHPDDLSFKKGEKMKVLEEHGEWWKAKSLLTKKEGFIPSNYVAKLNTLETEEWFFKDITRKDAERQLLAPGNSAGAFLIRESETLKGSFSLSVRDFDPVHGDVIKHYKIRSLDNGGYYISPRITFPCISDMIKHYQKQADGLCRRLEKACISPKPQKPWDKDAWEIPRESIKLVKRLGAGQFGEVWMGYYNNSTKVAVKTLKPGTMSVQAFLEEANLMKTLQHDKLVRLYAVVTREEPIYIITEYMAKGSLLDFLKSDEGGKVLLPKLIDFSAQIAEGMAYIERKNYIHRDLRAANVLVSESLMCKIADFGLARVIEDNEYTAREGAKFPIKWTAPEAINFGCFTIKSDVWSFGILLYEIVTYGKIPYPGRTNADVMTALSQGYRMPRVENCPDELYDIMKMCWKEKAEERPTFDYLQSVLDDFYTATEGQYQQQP
Sequence of Mitogen-activated protein kinase 9 (P45984 whole entry): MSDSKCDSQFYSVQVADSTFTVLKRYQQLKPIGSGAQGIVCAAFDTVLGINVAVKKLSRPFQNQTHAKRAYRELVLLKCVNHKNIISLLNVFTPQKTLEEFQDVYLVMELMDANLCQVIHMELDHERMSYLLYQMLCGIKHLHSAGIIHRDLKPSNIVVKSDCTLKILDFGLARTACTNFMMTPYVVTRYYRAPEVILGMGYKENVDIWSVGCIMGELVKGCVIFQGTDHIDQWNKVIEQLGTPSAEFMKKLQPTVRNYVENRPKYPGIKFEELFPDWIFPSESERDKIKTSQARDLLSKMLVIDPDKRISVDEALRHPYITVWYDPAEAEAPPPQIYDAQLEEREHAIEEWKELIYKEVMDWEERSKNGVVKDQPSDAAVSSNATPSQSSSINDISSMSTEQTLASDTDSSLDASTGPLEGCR

With `O=c1[nH]c2ccccc2n2cc(-c3ccc(Cl)cc3)cc12`, the Ki is 10000 nM (active) in [1]; 1580 nM (active) in test [2]; > 100000 nM (inactive) in test [3]; 3160 nM (active) in [4]; 3160 nM (active) in [5].

As to `CN(c1ccc2[nH]ncc2c1)c1c(NCc2ccc(Cl)cc2Cl)c(=O)c1=O`, the Ki is 5010 nM (active) in [6]; 6310 nM (active) in [7]; 10000 nM (active) in test [8]; 1260 nM (active) in [9]; 10000 nM (active) in test [5]; 10000 nM (active) in test [10].

`O=c1[nH]nc2c(-c3ccccc3)cccn12`: the Ki was 10000 nM (active) in test [11]; 63100 nM (active) in test [12]; 39800 nM (active) in test [13]; 50100 nM (active) in test [14]; 39800 nM (active) in test [15]; 39800 nM (active) in [16]. Besides, the Ki is 63100 nM (active) in [17]; 63100 nM (active) in test [18]; 79400 nM (active) in [19]; 100000 nM (active) in test [20]; 39800 nM (active) in test [21].

Turning to `COc1ccc2c(c1)C(=Cc1cnc[nH]1)C(=O)N2`, the Ki in test [22] was > 1580 nM (inactive); in test [23], > 1580 nM (inactive); in test [11] it was 251 nM (active); in [24], > 1580 nM (inactive); in [25] it was 501 nM (active); in [26], 501 nM (active). Further, the Ki was 1580 nM (active) in test [27]; 1580 nM (active) in test [28]; 501 nM (active) in test [29]; > 1580 nM (inactive) in test [30]; 1580 nM (active) in test [31]; > 7940 nM (inactive) in test [32]. Also, the inhibition constant (Ki) was 251 nM (active) at Aurora kinase B; > 1580 nM (inactive) in test [33]; > 1580 nM (inactive) in [34]; > 1580 nM (inactive) in [35]; 1580 nM (active) in test [36]; > 1580 nM (inactive) in [37]. For the same compound, the Ki in [9] and in test [38] was > 1580 nM (inactive) throughout.

The term Ki denotes the equilibrium dissociation constant of an inhibitor or competing ligand from its target.

For the origin of these results see ChEMBL document CHEMBL1201862, “PubChem BioAssay data set” (2004).
